The values that follow come from patent publication US20040219201A1, “Tempamine compositions and methods of use” (priority 2001, published 2004).

Where two headings read alike, the source gives them in different places.

The conditions of data set [1]: Samuni et al. 1997; cited from earlier work.
In data set [2] the test system is MCF-7 (human breast adenocarcinoma). In words: Cytotoxicity assay (methylene blue); nitroxides alone or doxorubicin plus tempamine. The format is cell-based. Conditions: for IC50: Homo sapiens. As to the method:
(§1) As described in Example 1, the cytotoxicity of tempamine was determined on three cell lines, MCF-7 (human breast adenocarcinoma), M-109S (doxorubicin-sensitive human breast carcinoma), and M-109R (doxorubicin-resistant human breast carcinoma). The effect of free tempamine on cell proliferation was determined by a methylene blue assay as described in Example 1B.
FIG. 4 is a plot comparing the percent survival of MCF-7 human breast carcinoma cells at various doses of tempamine (closed circles) and tempol (open circles) in vitro. The cells were analyzed after 72 hours of exposure to the nitroxides. Tempamine and tempol cell growth inhibitory activities were of similar magnitude.
(§2) In yet another aspect, the invention contemplates administration of tempamine in combination with chemotherapeutic agent. […] Doxorubicin was chosen as a model chemotherpeutic agent. The enhancement of doxorubicin cytotoxicity by tempamine was tested on three cell lines, as described in Example 1A. A cytotoxicity assay as described in Example 1B was used. Two of the cell lines, MCF-7 and M-109S, were doxorubicin-sensitive lines and one cell line, M-109R, was doxorubicin resistant. MCF-7 cells are more sensitive to tempamine (100 μM caused 75% growth inhibition), but are less sensitive to doxorubicin, than are M-109S cells.
(§3) MCF-7 (human breast adenocarcinoma), M-109S (doxorubicin-sensitive human breast carcinoma), and M-109R (doxorubicin-resistant human breast carcinoma) were maintained in RPMI medium (Biological Industries, Beit HaEmek, Israel) supplemented with 10% fetal calf serum (FCS). The cell lines were maintained under standard culture conditions at 37° C. in a humidified 5% CO2 atmosphere.
(§4) The effect of tempamine on cell proliferation was determined by the methylene blue assay (Horowitz, A. T., et al., Biochim BiophysActa. 1109:203, (1992)). Briefly, cells were seeded onto 96-well plates (MCF cells at a density of 6×10^3 cells per well, and M-109S and M-109R at a density of 1.5×10^3 cells per well) and allowed to grow for 24 hours prior to treatment with different concentrations of tempamine. After the addition of tempamine (5×10^−5 to 4×10^−4), the cells were incubated in RPMI +10% FCS for four days without change of medium. Then the cells were fixed with 2.5% glutaraldehyde, stained with methylene blue and assayed spectrophotometrically.

The test system of data set [3] is M-109S (doxorubicin-sensitive human breast carcinoma). Briefly: Cytotoxicity assay (methylene blue); tempamine alone or doxorubicin plus tempamine. The data set is classed as cell-based. To be noted: M-109S; for IC50: Homo sapiens. As to the method: as §1, §2, §3, §4

On to `CC1(C)CCCC(C)(C)N1[O]` [TEMPO], for which the “affinity to n-octanol versus aqueous phase” value in data set [1] is “much higher affinity to n-octanol than to the aqueous phase”.

As to `COc1cccc2c1C(=O)c1c(O)c3c(c(O)c1C2=O)C[C@@](O)(C(=O)CO)C[C@@H]3O[C@H]1C[C@H](N)[C@H](O)[C@H](C)O1` [doxorubicin], the IC50 (usually the midpoint of a concentration-inhibition curve) in data set [2] (MCF7, read-out: IC50 of Doxorubicin (nM) in the presence of 200 μM tempamine, MCF-7) was 55 ± 4.1 nM; in data set [2] (MCF7, MCF-7, read-out: IC50 of Doxorubicin (nM) in the presence of 0 μM tempamine), 487 ± 32 nM; in data set [2] (MCF7, MCF-7, read-out: IC50 of Doxorubicin (nM) in the presence of 50 μM tempamine) it was 475 ± 38 nM; in data set [2] (MCF7, MCF-7, read-out: IC50 of Doxorubicin (nM) in the presence of 100 μM tempamine) it was 67 ± 5.8 nM; in data set [3] (read-out: IC50 of Doxorubicin (nM) in the presence of 200 μM tempamine), 18 ± 1.1 nM; in data set [3] (read-out: IC50 of Doxorubicin (nM) in the presence of 0 μM tempamine), 60 ± 4 nM. Besides, in data set [3] (read-out: IC50 of Doxorubicin (nM) in the presence of 100 μM tempamine), the IC50 was found to be 27 ± 1.7 nM. The “change of IC50 value of doxorubicin” value in data set [2] (MCF-7, in the presence of 100 μM TMN) is “decreased by one order of magnitude”. Moreover, the “observed IC50 of doxorubicin decreased to” value in data set [3] (addition of 100-200 μM tempamine) was 50%.

For `CC1(C)CC(O)CC(C)(C)N1[O]` [tempol], the IC50 in data set [2] (MCF7, 72 h, read-out: IC50 (cell growth inhibition)) came to 320000 nM. For the same compound, the “affinity to n-octanol versus aqueous phase” value in data set [1] is given as “much higher affinity to n-octanol than to the aqueous phase”.
